The source of these data is US20160166576A1, “SUBSTITUTED AMIDOPYRAZOLE INHIBITORS OF INTERLEUKIN RECEPTOR-ASSOCIATED KINASES (IRAK-4)” (MERCK SHARP & DOHME CORP., priority 2013, published 2016).

For data set [1], the target named is T1, IRAK4 (Homo sapiens, UniProt Q9NWZ3).
T1 construct: GST; purchased SignalChem
T1 sequence (Q9NWZ3 1-460): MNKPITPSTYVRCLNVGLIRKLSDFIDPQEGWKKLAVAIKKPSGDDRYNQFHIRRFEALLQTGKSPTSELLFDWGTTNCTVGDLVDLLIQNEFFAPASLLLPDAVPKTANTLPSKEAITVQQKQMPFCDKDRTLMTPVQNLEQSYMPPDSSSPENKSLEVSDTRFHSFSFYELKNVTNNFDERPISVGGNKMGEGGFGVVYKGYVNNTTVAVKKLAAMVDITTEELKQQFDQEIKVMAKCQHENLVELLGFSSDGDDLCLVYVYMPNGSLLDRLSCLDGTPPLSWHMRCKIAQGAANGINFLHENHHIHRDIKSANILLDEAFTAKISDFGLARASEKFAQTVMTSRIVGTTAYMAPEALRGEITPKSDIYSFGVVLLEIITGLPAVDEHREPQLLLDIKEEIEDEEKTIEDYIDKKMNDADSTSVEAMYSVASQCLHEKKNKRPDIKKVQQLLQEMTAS
The data set can be described thus: IRAK4 IMAP kinase activity assay (fluorescence polarization). The following applies: 1 nM GST tagged IRAK4, 100 μM ATP, 1 hour at 25° C. The class given is biochemical. The protocol:
Determination of IRAK4 Kinase Activity
The kinase activity of IRAK4 is determined by its ability to catalyze the phosphorylation of a fluorescent polypeptide substrate. The extent of phosphorylation is measured using IMAP technology (Molecular Devices) where the phosphorylated fluorescent substrate binds to the large M(III)-based nanoparticles which reduces the rotational speed of the substrate and thus increases its fluorescent polarization (FP).
Procedure: A 20 μl reaction mixture contains 10 mM TriHC1, pH 7.2, 1 nM GST tagged IRAK4 (SignalChem), 100 nM fluorescent peptide substrate (RP7030, Molecular Devices), 100 μM ATP, 1 mM DTT, 2 mM MgCl2, and 0.01% Tween 20. The reaction is initiated by the addition of ATP. After incubation for 1 hour at 25° C., 60 μl of Progressive IMAP Reagent (Molecular Devices) is added to stop the reaction. Change in RP7030's FP is determined by a FP reader (EnVision Multilabel Reader, Perkin Elmer).
On the technique in general: In fluorescence polarisation assays a small probe gives low polarisation when free and higher when bound to something large.

Data set [2] is described as follows: Rat pharmacokinetics after PO and SC dosing. The class given is in vivo, female Lewis rats. The following applies: for Cmax: rat, fed female Lewis rats, plasma; for Cmax compared to that of Compound A: rats, at either 30 mpk SC dosing or 30 mpk PO dosing or both. The protocol:
Pharmacokinetic Properties
Pharmacokinetic parameters were determined following PO and SC dosing at 30 mg/kg in fed female Lewis rats. Compounds were formulated for both PO and SC dosing in 50/50 (v/v) 50% captisol/50 mM citrate buffer (pH 4). Plasma samples obtained from dosed animals were prepared for analysis by means of a single step protein precipitation technique by adding 200 μL of acetonitrile to 50 μL aliquots of individual subject samples. Samples were mixed by vortex for homogeneity and then subjected to centrifugation at 3500 rpm for 10 min. The supernatant (200 μL) was collected and injected into the LC-MS/MS for analysis. Pharmacokinetic parameters were calculated using established non-compartmental methods.

[3] abbreviates: 30 mg/kg PO, read-out: Rat PK, 30 mpk PO, Cmax.
The mark [4] stands for this setting: 30 mg/kg SC, read-out: Rat PK, 30 mpk SC, Cmax.

Like-named read-outs stand apart in the source and are kept apart here.

For orientation: IC50 means the midpoint of a concentration-inhibition curve. A low value points to inhibition by little substance. A word on the Cmax: it is the peak of the concentration-time curve. In data set [1], `Cc1ccc(-n2nc(N3CCN([C@@H]4CCS(=O)(=O)C4)CC3)cc2NC(=O)c2cnn3cccnc23)nc1` [Compound 8, N-[3-{4-[(3R)-1,1-dioxidotetrahydrothiophen-3-yl]piperazin-1-yl}-1-(5-methylpyridin-2-yl)-1H-pyrazol-5-yl]pyrazolo[1,5-a]pyrimidine-3-carboxamide] returned a half-maximal inhibitory concentration (IC50) of 1 nM. For the same compound, the Cmax in data set [2] (setting [3]) turned out to be 8.6 µM; in data set [2] (setting [4]), 1.5 µM. Also, the “Cmax compared to that of Compound A” value in data set [2] was “superior”.
Compound `Cc1ccc(-n2nc(N3CCN([C@H]4CCS(=O)(=O)C4)CC3)cc2NC(=O)c2cnn3cccnc23)nc1` [Compound 9, N-[3-{4-[(3S)-1,1-dioxidotetrahydrothiophen-3-yl]piperazin-1-yl}-1-(5-methylpyridin-2-yl)-1H-pyrazol-5-yl]pyrazolo[1,5-a]pyrimidine-3-carboxamide] showed an IC50 in data set [1] of 2 nM. Also, the Cmax is 7.7 µM in data set [2] (setting [3]) and 8.1 µM in data set [2] (setting [4]). For the same compound, the “Cmax compared to that of Compound A” value in data set [2] is “superior”.
In data set [1], `Cc1ccc(-n2nc(N3CCN(CC(N)=O)CC3)cc2NC(=O)c2cnn3cccnc23)nc1` [Compound 16, N-{3-[4-(2-amino-2-oxoethyl)piperazin-1-yl]-1-(5-methylpyridin-2-yl)-1H-pyrazol-5-yl}pyrazolo[1,5-a]pyrimidine-3-carboxamide] returned an IC50 of 4 nM. The Cmax in data set [2] (setting [3]) came out at 4.3 µM; in data set [2] (setting [4]) it was 16.1 µM. Besides, the “Cmax compared to that of Compound A” value in data set [2] was “superior”.
In data set [1], `Cc1ccc(-n2nc(N3CCN(C)CC3)cc2NC(=O)c2cnn3ccccc23)nc1` [Compound A, reference compound] registered an IC50 of 2 nM. The maximum concentration (Cmax) is 1 µM in data set [2] (setting [3]) and 3.3 µM in data set [2] (setting [4]).
